Source: PubChem BioAssay AID1259407 (Chemical Carcinogenesis Research Information System (CCRIS), 2018)
Calls of active or inactive are those of the source. The rule behind the calls is not given here.

Test system: CCRIS mutagenicity, Ames/micronucleus/aberration tests
Assay: CCRIS mutagenicity studies
[1] = Test System: AMES SALMONELLA TYPHIMURIUM, Strain/Indicator: TA98, Metabolic Activation: NONE, Method: STANDARD PLATE
[2] = Test System: AMES SALMONELLA TYPHIMURIUM, Strain/Indicator: TA98, Metabolic Activation: RAT, LIVER, S-9, AROCLOR 1254, Method: STANDARD PLATE
[3] = Test System: AMES SALMONELLA TYPHIMURIUM, Strain/Indicator: TA100, Metabolic Activation: NONE, Method: STANDARD PLATE
[4] = Test System: AMES SALMONELLA TYPHIMURIUM, Strain/Indicator: TA100, Metabolic Activation: RAT, LIVER, S-9, AROCLOR 1254, Method: STANDARD PLATE

Measured: mutagenic call

O=C(CCCN1CCN(c2ccccn2)CC1)c1ccc(F)cc1
inactive: Test System: AMES SALMONELLA TYPHIMURIUM, Strain/Indicator: TA98, Metabolic Activation: MOUSE, LIVER, S-9, PHENOBARBITAL, Method: STANDARD PLATE inactive; negative | [1] inactive; negative | Test System: AMES SALMONELLA TYPHIMURIUM, Strain/Indicator: TA98, Metabolic Activation: RAT, LIVER, S-9, AROCLOR 1254, Method: PREINCUBATION inactive; negative | [2] inactive; negative | [3] inactive; negative | [4] inactive; negative | Test System: AMES SALMONELLA TYPHIMURIUM, Strain/Indicator: TA1530, Metabolic Activation: NONE, Method: STANDARD PLATE inactive; negative | Test System: AMES SALMONELLA TYPHIMURIUM, Strain/Indicator: TA1530, Metabolic Activation: RAT, LIVER, S-9, AROCLOR 1254, Method: STANDARD PLATE inactive; negative | Test System: AMES SALMONELLA TYPHIMURIUM, Strain/Indicator: TA1535, Metabolic Activation: NONE, Method: STANDARD PLATE inactive; negative | Test System: AMES SALMONELLA TYPHIMURIUM, Strain/Indicator: TA1535, Metabolic Activation: RAT, LIVER, S-9, AROCLOR 1254, Method: STANDARD PLATE inactive; negative | Test System: AMES SALMONELLA TYPHIMURIUM, Strain/Indicator: TA1537, Metabolic Activation: NONE, Method: STANDARD PLATE inactive; negative | Test System: AMES SALMONELLA TYPHIMURIUM, Strain/Indicator: TA1537, Metabolic Activation: RAT, LIVER, S-9, AROCLOR 1254, Method: STANDARD PLATE inactive; negative | Test System: AMES SALMONELLA TYPHIMURIUM, Strain/Indicator: TA1538, Metabolic Activation: NONE, Method: STANDARD PLATE inactive; negative | Test System: AMES SALMONELLA TYPHIMURIUM, Strain/Indicator: TA1538, Metabolic Activation: RAT, LIVER, S-9, AROCLOR 1254, Method: STANDARD PLATE inactive; negative

CC(=O)O[C@@H]1C(=O)O[C@H]2[C@@H]1OC(=O)[C@@H]2OC(C)=O
inactive: [1] inactive; negative | Test System: AMES SALMONELLA TYPHIMURIUM, Strain/Indicator: TA98, Metabolic Activation: S-9, Method: STANDARD PLATE inactive; negative | [3] inactive; negative | Test System: AMES SALMONELLA TYPHIMURIUM, Strain/Indicator: TA100, Metabolic Activation: S-9, Method: STANDARD PLATE inactive; negative | Test System: AMES SALMONELLA TYPHIMURIUM, Strain/Indicator: TA1537, Metabolic Activation: S-9, Method: STANDARD PLATE inactive; negative | Test System: E. COLI, Strain/Indicator: WP2 (HCR), Metabolic Activation: NONE, Method: STANDARD PLATE inactive; negative | Test System: E. COLI, Strain/Indicator: WP2 (HCR), Metabolic Activation: S-9, Method: STANDARD PLATE inactive; negative

O=c1c2c(O)cccc2oc2cc3c(c(O)c12)[C@@H]1CCO[C@@H]1O3
inactive: Test System: AMES SALMONELLA TYPHIMURIUM, Strain/Indicator: TA98, Metabolic Activation: RAT, LIVER, S-9, PHENOBARBITAL, Method: STANDARD PLATE inactive; negative | Test System: AMES SALMONELLA TYPHIMURIUM, Strain/Indicator: TA100, Metabolic Activation: RAT, LIVER, S-9, PHENOBARBITAL, Method: STANDARD PLATE inactive; negative

[Cl][Sn]([Cl])([c]1ccccc1)[c]1ccccc1
inactive: Test System: AMES SALMONELLA TYPHIMURIUM, Strain/Indicator: TA98, Metabolic Activation: NONE, Method: SUSPENSION/PLATE inactive; negative | Test System: AMES SALMONELLA TYPHIMURIUM, Strain/Indicator: TA100, Metabolic Activation: NONE, Method: SUSPENSION/PLATE inactive; negative

C=CCC1OC(=O)C=CC1O (stereo not drawn)
inactive: [1] inactive; negative | [2] inactive; negative | [3] inactive; negative | [4] inactive; negative

COC(=O)Nc1nc2ccc(C(=O)c3ccc(F)cc3)cc2[nH]1
inactive: [1] inactive; negative | [2] inactive; negative | [3] inactive; negative | [4] inactive; negative
